Reference: PMC2676941 (The Journal of membrane biology, 2008)

What was measured:
[1] = tested on: plasmodial surface anion channel (PSAC); assay type: cell-based, Plasmodium falciparum; details: for concentration to inhibit proline transport versus hydroxyproline transport: data not shown
[2] = tested on: plasmodial surface anion channel (PSAC); details: compared with sorbitol and alanine transport; ref Lisk et al. 2007; cited from earlier work

Question: For `O=C1CN(/N=C/c2ccc(-c3ccc([N+](=O)[O-])cc3)o2)C(O)=N1` [Dantrolene], which “concentration to inhibit proline transport versus hydroxyproline transport” value [1] is on record?
Answer: Its value is “required higher concentrations”.

Question: Which results are given for `O=C(O)c1cc([N+](=O)[O-])ccc1NCCCc1ccccc1` [NPPB]?
Answer: hydroxyproline uptake (osmotic lysis over 90 min) ([1]; 10 μM NPPB): abolished; proline-mediated lysis ([1]; 10 μM NPPB): slowed but not abolished; higher inhibitor concentration required to comparably reduce proline uptake ([1]; relative to the concentration that abolishes hydroxyproline uptake): 10 fold

Question: For `COc1ccc(Cl)cc1C(=O)NCCc1ccc(S(=O)(=O)NC(=O)NC2CCCCC2)cc1` [glybenclamide], which “concentration to inhibit proline transport versus hydroxyproline transport” value [1] is on record?
Answer: Its value is “required higher concentrations”.

Question: Which “inhibition of PhTMA-Cl and isoleucine transport” value [2] does the source give for `O=C(CCc1ccc(O)cc1)c1c(O)cc(O)cc1O[C@@H]1O[C@H](CO)[C@@H](O)[C@H](O)[C@H]1O` [phloridzin] here?
Answer: Its value is “less effectively inhibited”.
